Experimental data from PubChem BioAssay AID248 (DTP/NCI, 2004).
Where “and” joins values, the source holds several entries; their conditions need not be identical. Identical values can stand only once. Toxic doses and inconclusive results are not listed.

Test system: L1210 leukemia ip in BDF1 mice, survival T/C
Experiment: NCI In Vivo Anticancer Drug Screen. Data for tumor model L1210 Leukemia (intraperitoneal) in B6D2F1 (BDF1) mice
Conditions: endpoint: mean survival time, higher = longer survival
Procedure, shortened: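 Tumor was transplanted into mice, which were then dosed with test compound or vehicle alone. Survival was recorded for each group, and the treated figure was expressed relative to the control figure.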

[1] = dose: 100.0 mg/kg/injection, schedule: Q01DX001 (ip), vehicle: Klucel (hydroxypropylcellulose) (HPC)
[2] = dose: 200.0 mg/kg/injection, schedule: Q01DX001 (ip), vehicle: Klucel (hydroxypropylcellulose) (HPC)
[3] = dose: 400.0 mg/kg/injection, schedule: Q01DX001 (ip), vehicle: Klucel (hydroxypropylcellulose) (HPC)
[4] = dose: 100.0 mg/kg/injection, schedule: Q01DX001 (ip), vehicle: carboxymethylcellulose (CMC)
[5] = dose: 200.0 mg/kg/injection, schedule: Q01DX001 (ip), vehicle: carboxymethylcellulose (CMC)
[6] = dose: 400.0 mg/kg/injection, schedule: Q01DX001 (ip), vehicle: carboxymethylcellulose (CMC)
[7] = dose: 100.0 mg/kg/injection, schedule: Q04DX003 (ip), vehicle: saline sonified
[8] = dose: 200.0 mg/kg/injection, schedule: Q04DX003 (ip), vehicle: saline sonified
[9] = dose: 100.0 mg/kg/injection, schedule: Q01DX001 (ip), vehicle: saline
[10] = dose: 200.0 mg/kg/injection, schedule: Q01DX001 (ip), vehicle: saline
[11] = dose: 400.0 mg/kg/injection, schedule: Q01DX001 (ip), vehicle: saline
[12] = dose: 100.0 mg/kg/injection, schedule: Q04DX003 (ip), vehicle: saline with Tween-80
[13] = dose: 200.0 mg/kg/injection, schedule: Q04DX003 (ip), vehicle: saline with Tween-80
[14] = dose: 400.0 mg/kg/injection, schedule: Q04DX003 (ip), vehicle: saline with Tween-80
[15] = dose: 100.0 mg/kg/injection, schedule: Q04DX002 (ip), vehicle: Klucel (hydroxypropylcellulose) (HPC)
[16] = dose: 200.0 mg/kg/injection, schedule: Q04DX002 (ip), vehicle: Klucel (hydroxypropylcellulose) (HPC)
[17] = dose: 400.0 mg/kg/injection, schedule: Q04DX002 (ip), vehicle: Klucel (hydroxypropylcellulose) (HPC)
[18] = dose: 100.0 mg/kg/injection, schedule: Q01DX009 (ip), vehicle: saline
[19] = dose: 100.0 mg/kg/injection, schedule: Q01DX009 (ip), vehicle: saline with Tween-80
[20] = dose: 200.0 mg/kg/injection, schedule: Q01DX009 (ip), vehicle: saline with Tween-80
[21] = dose: 400.0 mg/kg/injection, schedule: Q01DX009 (ip), vehicle: saline with Tween-80

O=C1NCN(c2ccccc2)C12CCN(Cc1nc3cc([N+](=O)[O-])ccc3n1-c1ccccc1)CC2
T/C [1]: 86 % of control
T/C [2]: 93 % of control
T/C [3]: 99 % of control

COc1ccc2c(c1OC(C)=O)-c1cc(O)cc3c1C(C2)N(C(=O)CN(CCO)CCO)CC3 (stereo not drawn)
T/C (dose: 25.0 mg/kg/injection, schedule: Q04DX003 (ip), vehicle: DMSO): 104 % of control
T/C (dose: 50.0 mg/kg/injection, schedule: Q04DX003 (ip), vehicle: DMSO): 93 % of control
T/C (dose: 100.0 mg/kg/injection, schedule: Q04DX003 (ip), vehicle: DMSO): 89 % of control
T/C (dose: 200.0 mg/kg/injection, schedule: Q04DX003 (ip), vehicle: DMSO): 104 % of control
T/C (dose: 400.0 mg/kg/injection, schedule: Q04DX003 (ip), vehicle: DMSO): 97 % of control

O=c1[nH]c(=O)c2cc3ccccc3nc2[nH]1
T/C (dose: 50.0 mg/kg/injection, schedule: Q01DX001 (ip), vehicle: carboxymethylcellulose (CMC)): 97 % of control
T/C [4]: 101 % of control
T/C [5]: 95 % of control
T/C [6]: 97 % of control

CCCCCCCCCCCCCCCOc1ccc2ccccc2c1
T/C [1]: 326 % of control
T/C [2]: 326 % of control
T/C [3]: 326 % of control

Cc1cc2oc(=O)c(Cl)c(Cl)c2c(C)c1Cl
T/C (dose: 10.0 mg/kg/injection, schedule: Q01DX001 (ip), vehicle: saline): 105 % of control
T/C (dose: 10.0 mg/kg/injection, schedule: Q01DX009 (ip), vehicle: Klucel (hydroxypropylcellulose) (HPC)): 101 % of control
T/C (dose: 10.0 mg/kg/injection, schedule: Q04DX003 (ip), vehicle: Klucel (hydroxypropylcellulose) (HPC)): 86 % of control
T/C (dose: 20.0 mg/kg/injection, schedule: Q01DX001 (ip), vehicle: saline): 111 % of control
T/C (dose: 20.0 mg/kg/injection, schedule: Q01DX009 (ip), vehicle: Klucel (hydroxypropylcellulose) (HPC)): 101 % of control
T/C (dose: 20.0 mg/kg/injection, schedule: Q04DX003 (ip), vehicle: Klucel (hydroxypropylcellulose) (HPC)): 93 % of control

Clc1cc(I)cc(Cl)c1Cl
T/C (dose: 100.0 mg/kg/injection, schedule: Q04DX003 (ip), vehicle: acetone): 108 % of control
T/C (dose: 200.0 mg/kg/injection, schedule: Q04DX003 (ip), vehicle: acetone): 103 % of control
T/C (dose: 400.0 mg/kg/injection, schedule: Q04DX003 (ip), vehicle: acetone): 91 % of control

CC1B(O)Nc2nc(=S)[nH]c(N)c21 (stereo not drawn)
T/C [7]: 104 % of control
T/C [8]: 103 % of control

O=C(ON=C1C=CC(=NOC(=O)c2ccccc2)C=C1)c1ccccc1
T/C [9]: 97 % of control
T/C [10]: 102 % of control
T/C [11]: 91 % of control

CCOC(=O)c1ccc(F)cc1
T/C (dose: 100.0 mg/kg/injection, schedule: Q04DX002 (ip), vehicle: saline with Tween-80): 101 % of control
T/C (dose: 200.0 mg/kg/injection, schedule: Q04DX002 (ip), vehicle: saline with Tween-80): 115 % of control
T/C (dose: 400.0 mg/kg/injection, schedule: Q04DX002 (ip), vehicle: saline with Tween-80): 104 % of control

CC1CC(C)(C)N=C(C(Cc2ccc(Br)cc2)c2ccccc2)O1 (stereo not drawn)
T/C [12]: 97 % of control
T/C [13]: 92 % of control
T/C [14]: 95 % of control

CS(=O)(=O)Oc1cccc(C(F)(F)F)c1
T/C [4]: 107 % of control
T/C [5]: 95 % of control
T/C [6]: 98 % of control

O=C(COc1cc(Cl)c(Cl)cc1Cl)Oc1ccc(Cl)cc1Cl
T/C [15]: 94 % of control
T/C [16]: 91 % of control
T/C [17]: 98 % of control

CCCCCOC(=O)CCCc1ccc(N(CCCl)CCCl)cc1
T/C (dose: 50.0 mg/kg/injection, schedule: Q01DX009 (ip), vehicle: saline): 123 % of control
T/C [18]: 86 % of control

CC1CC(=O)NN1C(=S)Nc1ccccc1 (stereo not drawn)
T/C [12]: 102 % of control
T/C [13]: 98 % of control
T/C [14]: 100 % of control

CCCCCCC(/C=N/NC(=O)CCCCCCCCC(=O)N/N=C/C(=C/c1ccccc1)CCCCCC)=C\c1ccccc1
T/C (dose: 100.0 mg/kg/injection, schedule: Q01DX009 (ip), vehicle: Klucel (hydroxypropylcellulose) (HPC)): 93 % of control
T/C (dose: 200.0 mg/kg/injection, schedule: Q01DX009 (ip), vehicle: Klucel (hydroxypropylcellulose) (HPC)): 98 % of control
T/C (dose: 400.0 mg/kg/injection, schedule: Q01DX009 (ip), vehicle: Klucel (hydroxypropylcellulose) (HPC)): 91 % of control

COC1=NS(=O)(=O)CC(c2ccccc2)O1 (stereo not drawn)
T/C (dose: 75.0 mg/kg/injection, schedule: Q04DX003 (ip), vehicle: other): 102 % of control
T/C (dose: 150.0 mg/kg/injection, schedule: Q04DX003 (ip), vehicle: other): 86 % of control
T/C (dose: 300.0 mg/kg/injection, schedule: Q04DX003 (ip), vehicle: other): 94 % of control

O=C(Nc1ccccc1Cl)Oc1ccc(C2CCCCC2)cc1
T/C [15]: 103 % of control
T/C [16]: 98 % of control
T/C [17]: 98 % of control

O=C1/C(=C\c2ccccc2)COC/C1=C\c1ccccc1
T/C [18]: 94 % of control
T/C (dose: 400.0 mg/kg/injection, schedule: Q01DX009 (ip), vehicle: saline): 87 % of control

Cc1nc2cc(N=Cc3ccc(N(CCCl)CCCl)cc3F)ccc2n1C
T/C [15]: 104 % of control
T/C [16]: 101 % of control
T/C [17]: 104 % of control

CC(C)CN(CC(C)C)c1ccc([N+](=O)[O-])cc1[N+](=O)[O-]
T/C [12]: 94 % of control
T/C [13]: 98 % of control
T/C [14]: 96 % of control

CCOC(=O)c1cc(=O)ss1
T/C (dose: 50.0 mg/kg/injection, schedule: Q01DX009 (ip), vehicle: saline with Tween-80): 100 % of control
T/C [19]: 101 % of control
T/C [12]: 96 % of control
T/C [20]: 92 % of control
T/C [13]: 97 % of control
T/C [21]: 94 % of control
T/C [14]: 106 % of control

Cc1ccc(/C=N/NC(=O)CNC(=O)c2ccccc2)cc1
T/C [19]: 93 % of control
T/C [20]: 96 % of control
T/C [21]: 98 % of control

O=C1NCCc2c1sc1ccccc21
T/C [4]: 95 % of control
T/C [6]: 90 % of control

CCSC(C(OC(C)=O)C(OC(C)=O)C(OC(C)=O)C(COC(C)=O)OC(C)=O)n1cnc2c(=S)nc[nH]c21 (stereo not drawn)
T/C [7]: 102 % of control
T/C [8]: 96 % of control
T/C (dose: 400.0 mg/kg/injection, schedule: Q04DX003 (ip), vehicle: saline sonified): 91 % of control

O=C(C=C(C(F)(F)F)C(F)(F)F)c1ccc(Cl)c([N+](=O)[O-])c1
T/C (dose: 0.5 mg/kg/injection, schedule: Q01DX009 (ip), vehicle: other): 98 % of control
T/C (dose: 1.0 mg/kg/injection, schedule: Q01DX009 (ip), vehicle: other): 95 % of control
T/C (dose: 2.5 mg/kg/injection, schedule: Q01DX009 (ip), vehicle: other): 101 % of control
T/C (dose: 2.5 mg/kg/injection, schedule: Q01DX009 (ip), vehicle: saline with Tween-80): 96 % of control
T/C (dose: 6.0 mg/kg/injection, schedule: Q01DX001 (ip), vehicle: saline with Tween-80): 103 % of control
T/C (dose: 12.0 mg/kg/injection, schedule: Q01DX001 (ip), vehicle: saline with Tween-80): 98 % of control
T/C (dose: 25.0 mg/kg/injection, schedule: Q01DX001 (ip), vehicle: saline with Tween-80): 95 % of control and 100 % of control

COC(=O)C1OC1c1cc(Cl)cc(Cl)c1OC (stereo not drawn)
T/C [9]: 100 % of control
T/C [10]: 106 % of control
T/C [11]: 101 % of control
